Structures are written as SMILES.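 Assay format: 96-well plates, 48-hour exposure. GI50 marks 50% less growth. TGI: concentration producing complete growth inhibition.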

Among the test systems are 786-0 renal; EKVX NSCLC; HCC-2998 colon; HCT-15 colon; HT29 colon; MCF7 breast; PC-3 prostate; SK-MEL-5 melanoma; U251 CNS; UACC-62 melanoma.
Common to all, as to experiment: growth of human tumour cells (NCI), 48 h

With `Fc1ccc(-c2nn3c(CNc4ccccc4)nnc3s2)cc1`, the GI50 in the assay on 786-0 renal was 56.2 µM; with EKVX NSCLC, 27.8 µM; with HCC-2998 colon, 0.585 µM; in the assay with HCT-15 colon, 45 µM; in the assay on HT29 colon, 39.2 µM; with MCF7 breast it was 60.2 µM. In addition, the GI50 was 31 µM in the assay with PC-3 prostate, 17.5 µM in the assay with SK-MEL-5 melanoma, 23.5 µM in the assay with U251 CNS and 18.4 µM in the assay with UACC-62 melanoma. In addition, the TGI was above 100 µM in the assay on 786-0 renal; above 100 µM in the assay on EKVX NSCLC; 25 µM in the assay on HCC-2998 colon; above 100 µM in the assay on HCT-15 colon; above 100 µM with HT29 colon; above 100 µM with MCF7 breast. In addition, the TGI with PC-3 prostate was above 100 µM; in the assay with SK-MEL-5 melanoma, 36.7 µM; with U251 CNS, above 100 µM; in the assay with UACC-62 melanoma, 53.7 µM.
In the case of `CC(C)CCSC1=CC(=O)c2ccccc2C1=O`, the GI50 with 786-0 renal was 19.8 µM; with EKVX NSCLC it was 4.5 µM; in the assay on HCC-2998 colon, 21.5 µM; with HCT-15 colon it was 6.61 µM; in the assay with HT29 colon, 23.7 µM; in the assay with MCF7 breast it was 1.42 µM. Also, the GI50 in the assay on PC-3 prostate is 1.96 µM; in the assay with SK-MEL-5 melanoma it was 0.723 µM; with U251 CNS, 8.11 µM; with UACC-62 melanoma, 4.02 µM. Further, the TGI in the assay with 786-0 renal came out at 34.4 µM; with EKVX NSCLC, 16.6 µM; in the assay with HCC-2998 colon it was 45.7 µM; in the assay with HCT-15 colon it was 19.1 µM; in the assay on HT29 colon it was 53.7 µM; in the assay on MCF7 breast it was 3.63 µM. Further, the TGI in the assay on PC-3 prostate is 6.85 µM; with SK-MEL-5 melanoma, 20.1 µM; with U251 CNS, 21.5 µM; with UACC-62 melanoma it was 14.8 µM.
With `COc1ccccc1-c1cc(/C=C2\C(=O)Nc3ncc(Br)cc32)cc(Br)c1O`, the GI50 with 786-0 renal was 12.2 µM; in the assay on EKVX NSCLC, 11.2 µM; with HCC-2998 colon it was above 25 µM; with HCT-15 colon, 9.6 µM; in the assay with HT29 colon, 18.9 µM; in the assay on MCF7 breast it was 8.05 µM. Besides, the GI50 with PC-3 prostate was 9.18 µM; in the assay on SK-MEL-5 melanoma it was 11.4 µM; in the assay on U251 CNS, 12.7 µM; with UACC-62 melanoma, 6.91 µM. In addition, the TGI with 786-0 renal, in the assay with EKVX NSCLC, in the assay on HCC-2998 colon, in the assay with HCT-15 colon, in the assay on HT29 colon and in the assay with MCF7 breast was above 25 µM in each case. Moreover, the TGI in the assay on PC-3 prostate, in the assay on SK-MEL-5 melanoma, in the assay on U251 CNS and in the assay on UACC-62 melanoma was above 25 µM in each case.
For `NCCCCCCCCn1c2c(c3ccccc3c1=O)C(=O)c1ccccc1-2`, the GI50 is 21 µM with 786-0 renal; 17.4 µM with EKVX NSCLC; 1.89 µM in the assay with HCC-2998 colon; 3.26 µM with HCT-15 colon; 1.86 µM in the assay with HT29 colon; 7.45 µM with MCF7 breast. The GI50 in the assay on PC-3 prostate is 5.05 µM; in the assay on SK-MEL-5 melanoma, 1.91 µM; with U251 CNS, 13.4 µM; in the assay with UACC-62 melanoma it was 3.76 µM. In addition, the TGI in the assay with 786-0 renal came to 56.4 µM; in the assay on EKVX NSCLC, 44.7 µM; with HCC-2998 colon, 3.75 µM; in the assay on HCT-15 colon, 10.2 µM; in the assay on HT29 colon, 4.02 µM; in the assay on MCF7 breast, 46.2 µM. Moreover, the TGI with PC-3 prostate worked out at 23.3 µM; in the assay on SK-MEL-5 melanoma, 3.94 µM; in the assay on U251 CNS it was 35.9 µM; in the assay on UACC-62 melanoma it was 14.1 µM.
For the compound `COC(=O)C(Cc1cnc[nH]1)NC(=O)CNC(=O)CCCn1c(=O)c2c3ccccc3n(C)c2n2nnc(-c3ccccc3)c12` (stereo not given), the GI50 with 786-0 renal, in the assay on EKVX NSCLC, in the assay on HCC-2998 colon, in the assay with HCT-15 colon, in the assay with HT29 colon and in the assay with MCF7 breast was above 100 µM throughout. For the same compound, the GI50 in the assay on PC-3 prostate was 30.1 µM; in the assay with SK-MEL-5 melanoma, above 100 µM; in the assay with U251 CNS, above 100 µM; in the assay with UACC-62 melanoma it was above 100 µM. Also, the TGI in the assay with 786-0 renal, with EKVX NSCLC, in the assay with HCC-2998 colon, in the assay with HCT-15 colon, in the assay with HT29 colon and in the assay on MCF7 breast was above 100 µM each time. For the same compound, the TGI in the assay on PC-3 prostate, in the assay with SK-MEL-5 melanoma, with U251 CNS and in the assay on UACC-62 melanoma was above 100 µM in each case.
In the case of `Cc1nc2ccccn2c1NC(=O)NNC(=S)Nc1ccc(Br)cc1`, the GI50 was 41.7 µM with 786-0 renal; 46.4 µM in the assay with EKVX NSCLC; 27.4 µM in the assay with HCC-2998 colon; 28.8 µM in the assay on HCT-15 colon; 24.9 µM in the assay with HT29 colon; 29.4 µM in the assay on MCF7 breast. Moreover, the GI50 is 24.5 µM in the assay on PC-3 prostate, 47.7 µM in the assay on SK-MEL-5 melanoma, 32.1 µM in the assay on U251 CNS and 27.8 µM with UACC-62 melanoma. Further, the TGI with 786-0 renal is above 100 µM; in the assay with EKVX NSCLC it was above 100 µM; in the assay with HCC-2998 colon it was 73.1 µM; in the assay on HCT-15 colon, above 100 µM; with HT29 colon, 69.8 µM; in the assay on MCF7 breast, above 100 µM. The TGI with PC-3 prostate, with SK-MEL-5 melanoma, in the assay on U251 CNS and in the assay on UACC-62 melanoma was above 100 µM throughout.

The values are drawn from PubChem BioAssay (NCI).
